Data published in PubChem BioAssay AID1259407 (Chemical Carcinogenesis Research Information System (CCRIS), 2018).
Calls of active or inactive are those of the source. No rule for the calls is given here.

Tested on: CCRIS mutagenicity, Ames/micronucleus/aberration tests
Experiment: CCRIS mutagenicity studies
[1] = Test System: AMES SALMONELLA TYPHIMURIUM, Strain/Indicator: TA98, Metabolic Activation: NONE, Method: STANDARD PLATE
[2] = Test System: AMES SALMONELLA TYPHIMURIUM, Strain/Indicator: TA98, Metabolic Activation: RAT, LIVER, S-9, AROCLOR 1254, Method: STANDARD PLATE
[3] = Test System: AMES SALMONELLA TYPHIMURIUM, Strain/Indicator: TA100, Metabolic Activation: NONE, Method: STANDARD PLATE
[4] = Test System: AMES SALMONELLA TYPHIMURIUM, Strain/Indicator: TA100, Metabolic Activation: RAT, LIVER, S-9, AROCLOR 1254, Method: STANDARD PLATE
[5] = Test System: AMES SALMONELLA TYPHIMURIUM, Strain/Indicator: TA1535, Metabolic Activation: NONE, Method: STANDARD PLATE
[6] = Test System: AMES SALMONELLA TYPHIMURIUM, Strain/Indicator: TA1535, Metabolic Activation: RAT, LIVER, S-9, AROCLOR 1254, Method: STANDARD PLATE
[7] = Test System: AMES SALMONELLA TYPHIMURIUM, Strain/Indicator: TA1537, Metabolic Activation: NONE, Method: STANDARD PLATE
[8] = Test System: AMES SALMONELLA TYPHIMURIUM, Strain/Indicator: TA1537, Metabolic Activation: RAT, LIVER, S-9, AROCLOR 1254, Method: STANDARD PLATE
[9] = Test System: MOUSE LYMPHOMA, Strain/Indicator: L5178Y (TK+/TK-), Metabolic Activation: NONE, Method: SUSPENSION/PLATE

Question: What does the source list for `COC(=O)c1ccc(O)cc1`?
Answer: mutagenic call [1]: inactive; negative; mutagenic call [2]: inactive; negative; mutagenic call [3]: inactive; negative; mutagenic call [4]: inactive; negative; mutagenic call [5]: inactive; negative; mutagenic call [6]: inactive; negative; mutagenic call [7]: inactive; negative; mutagenic call [8]: inactive; negative; mutagenic call (Test System: AMES SALMONELLA TYPHIMURIUM, Strain/Indicator: TA1538, Metabolic Activation: NONE, Method: STANDARD PLATE): inactive; negative; mutagenic call (Test System: AMES SALMONELLA TYPHIMURIUM, Strain/Indicator: TA1538, Metabolic Activation: RAT, LIVER, S-9, AROCLOR 1254, Method: STANDARD PLATE): inactive; negative; mutagenic call (Test System: E. COLI, Strain/Indicator: WP2, Metabolic Activation: NONE, Method: STANDARD PLATE): inactive; negative; mutagenic call (Test System: E. COLI, Strain/Indicator: WP2, Metabolic Activation: RAT, LIVER, S-9, AROCLOR 1254, Method: STANDARD PLATE): inactive; negative

Question: With `CC(=O)CCCCn1c(=O)c2c(ncn2C)n(C)c1=O` as the molecule, how does the mutagenic call (End Point: IN VITRO CHROMOSOMAL ABERRATIONS, Test System: HUMAN PERIPHERAL BLOOD LYMPHOCYTES, Metabolic Activation: NONE) read?
Answer: active; positive (structural changes)

Question: And the mutagenic call (End Point: IN VITRO CHROMOSOMAL ABERRATIONS, Test System: V79 CELLS, Metabolic Activation: NONE)?
Answer: active; positive (structural changes)

Question: What about the mutagenic call (End Point: IN VITRO MICRONUCLEUS, Test System: HUMAN PERIPHERAL BLOOD LYMPHOCYTES, Metabolic Activation: NONE) of the same molecule?
Answer: active; positive

Question: And the mutagenic call (End Point: IN VITRO MICRONUCLEUS, Test System: V79 CELLS, Metabolic Activation: NONE)?
Answer: active; positive

Question: What about the mutagenic call (Test System: CHINESE HAMSTER V-79, Strain/Indicator: V-79 (HGPRT)/6-THIOGUANINE, Metabolic Activation: NONE) of the same molecule?
Answer: inactive; negative

Question: And the mutagenic call (Test System: CHINESE HAMSTER V-79, Strain/Indicator: V-79 (HGPRT)/6-THIOGUANINE, Metabolic Activation: S-9)?
Answer: inactive; negative

Question: With `CCCCN(COC(C)=O)N=O` as the molecule, how does the mutagenic call (Test System: UDS RAT UROTHELIAL CELLS, Strain/Indicator: THY INCORP, Metabolic Activation: NONE) read?
Answer: active; positive

Question: How did the mutagenic call [9] turn out when `CC(C)=CC(=O)C=C(C)C` was run?
Answer: inactive; negative

Question: With `ClC(Cl)=C(Cl)c1ccc(Cl)c(Cl)c1Cl` as the molecule, how does the mutagenic call [1] read?
Answer: inactive; negative

Question: And the mutagenic call [2]?
Answer: inactive; negative

Question: What about the mutagenic call [3] of the same molecule?
Answer: inactive; negative

Question: And the mutagenic call [4]?
Answer: inactive; negative

Question: Which results are given for `CN(C)CCCCl`?
Answer: mutagenic call (Test System: AMES SALMONELLA TYPHIMURIUM, Strain/Indicator: TA98, Metabolic Activation: HAMSTER, LIVER, S-9, AROCLOR 1254, Method: STANDARD PLATE): inactive; negative; mutagenic call [1]: inactive; negative; mutagenic call [2]: inactive; negative; mutagenic call (Test System: AMES SALMONELLA TYPHIMURIUM, Strain/Indicator: TA100, Metabolic Activation: HAMSTER, LIVER, S-9, AROCLOR 1254, Method: STANDARD PLATE): active; positive; mutagenic call [3]: active; positive; mutagenic call [4]: active; positive; mutagenic call [9]: inactive; positive. reevaluation of results: negative; mutagenic call (Test System: MOUSE LYMPHOMA, Strain/Indicator: L5178Y (TK+/TK-), Metabolic Activation: RAT, LIVER, S-9, AROCLOR 1254, Method: SUSPENSION/PLATE): active; positive. reevaluation of results: inconclusive

Question: How did the mutagenic call [4] turn out when `O=c1c2cccc3ccc4cccc1c4c32` was run?
Answer: active; positive

Question: With `Oc1ccc2cccnc2c1` as the molecule, how does the mutagenic call [3] read?
Answer: inactive; negative

Question: And the mutagenic call (Test System: AMES SALMONELLA TYPHIMURIUM, Strain/Indicator: TA100, Metabolic Activation: RAT, LIVER, S-9, AROCLOR 1254 (10% OR 20%), Method: STANDARD PLATE)?
Answer: inactive; negative

Question: What does the source list for `CCn1cc(C(=O)O)c(=O)c2cc(F)c(-c3ccncc3)c(F)c21`?
Answer: mutagenic call (Test System: AMES SALMONELLA TYPHIMURIUM, Strain/Indicator: TA98, Metabolic Activation: MOUSE, LIVER, S-9, AROCLOR 1254, Method: STANDARD PLATE): inactive; negative; mutagenic call [1]: inactive; negative; mutagenic call [2]: inactive; negative; mutagenic call (Test System: AMES SALMONELLA TYPHIMURIUM, Strain/Indicator: TA100, Metabolic Activation: MOUSE, LIVER, S-9, AROCLOR 1254, Method: STANDARD PLATE): inactive; negative; mutagenic call [3]: inactive; negative; mutagenic call [4]: inactive; negative; mutagenic call (Test System: AMES SALMONELLA TYPHIMURIUM, Strain/Indicator: TA1535, Metabolic Activation: MOUSE, LIVER, S-9, AROCLOR 1254, Method: STANDARD PLATE): inactive; negative; mutagenic call [5]: inactive; negative; mutagenic call [6]: inactive; negative; mutagenic call (Test System: AMES SALMONELLA TYPHIMURIUM, Strain/Indicator: TA1537, Metabolic Activation: MOUSE, LIVER, S-9, AROCLOR 1254, Method: STANDARD PLATE): inactive; negative; mutagenic call [7]: inactive; negative; mutagenic call [8]: inactive; negative; mutagenic call (Test System: CHINESE HAMSTER OVARY, Strain/Indicator: CHO-K1-CMZ (HGPRT), Metabolic Activation: NONE): active; positive; mutagenic call (Test System: CHINESE HAMSTER V-79, Strain/Indicator: V-79/6-THIOGUANINE, Metabolic Activation: NONE): active; positive; mutagenic call (Test System: CHINESE HAMSTER V-79, Strain/Indicator: V-79/6-THIOGUANINE, Metabolic Activation: RAT, LIVER, S-9, AROCLOR 1254): active; positive; mutagenic call [9]: active; positive; mutagenic call (Test System: MOUSE LYMPHOMA, Strain/Indicator: L5178Y (TK+/TK-), Metabolic Activation: RAT, LIVER, S-9, Method: SUSPENSION/PLATE): active; positive
